Tests used:
AD38 cells = experiment: Viability of AD38 cells (Promega CellTiter-Glo); assay type: cell-based; conditions: 10 μM compound, 6 days, CellTiter-Glo luminescence normalized to DMSO control (100%)
Procedure: (§1) Example 2: Assay Measuring Activity of Compounds on Viral Production in and on Viability of AD38 Cells
(§2) AD38 cells were then re-suspended with 10 mL of Treatment Medium and counted. Wells of a collagen coated 96-well NUNC microtiter plate were seeded at 50,000/well in 180 μL of Treatment Medium, and 20 μL of in treatment media with either 10% DMSO (Control) or a 10× solution of compound in 10% DMSO was added. Plates were incubated for 6 days at 37° C.
At the end of compound treatment period cell viability was assessed using a Promega CellTiter-Glo protocol. All supernatant was removed the previously treated 96-well microtiter plate, and 50 μL Tetracycline-free treatment medium (DMEM/F12 (1:1), 1× Pen/step (cat #: 30-002-CL, Mediatech, Inc), with 2% FBS, Tet-system approved (cat #: 631106, Clontech), and 1% DMSO was added back to each well. Another 50 μL of CellTiter-Glo reagent solution (Promega, G7573) was then added at room temperature and the contents mixed for 2 minutes on an orbital shaker to induce cell lysis. This was followed by incubation at room temperature for 10 minutes to stabilize the luminescent signal. The luminescence was recorded for 0.2 seconds per well on a Tecan multimode plate reader (Infinite M1000 pro). The luminescent signal from each well was normalized against that of untreated (DMSO) control wells. All results were reported percent viability (with controls being 100%).

[1] = tested on: HBV viral load in AD38 cells; experiment: Viral load production in AD38 cells, quantitative PCR of the core sequence in supernatant; assay type: cell-based; conditions: Hepatitis B virus, 144 h, 10 μM compound, 6 days at 37° C., supernatant qPCR, relative to DMSO control; read-out: AD38 Viral Load (%) (VL with cmpd/VL in DMSO control) at 10 μM
Procedure: as §1, §2
Viral load production was assayed by quantitative PCR of the core sequence. […] The PCR mixture was incubated at 45° C. for 5 minutes, then 95° C. for 10 min, followed by 40 cycles of 10 seconds at 95° C. and 20 seconds at 60° C. Viral load was quantitated against known standards by using ViiA™ 7 Software. Viral load in the supernatant from wells with treated cells were compared against viral load in supernatant from DMSO control wells (>3 per plate).

| Compound | AD38 Viability Normalized Result (cmpd/DMSO %) at 10 μM (AD38 cells) | activity at 10 µM [1] |
| --- | --- | --- |
| CC(=O)NCCCSc1ccc(-c2ncc(CNC(=O)c3ccc4c(c3)NC(=O)c3ccccc3S4(=O)=O)s2)cc1 [compound 11067, N-((2-(4-((3-acetamidopropyl)thio)phenyl)thiazol-5-yl)methyl)-11-oxo-10, 11-dihydrodibenzo [b, f] [1, 4] thiazepine-8-carboxamide 5,5-dioxide] | 99% | 2.5% |
| CC(C)(C)OC(=O)NCCNC(=O)c1ccc(-c2ncc(CNC(=O)c3ccc4c(c3)NC(=O)c3ccccc3S4(=O)=O)s2)cc1 [11017-A, tert-butyl (2-(4-(5-((5,5-dioxido-11-oxo-10, 11-dihydrodibenzo [b, f] [1, 4]thiazepine-8-carboxamido)methyl)thiazol-2-yl)benzamido)ethyl)carbamate] | 102% | 8.8% |
| N#CC1(COc2ccc(-c3ncc(CNC(=O)c4ccc5c(c4)NC(=O)c4ccccc4S5(=O)=O)s3)cc2)CCC1 [compound 11182] | 104% | 0.7% |
| CC(C)(C)OC(=O)N1CCC[C@@H]1COc1ccc(-c2ncc(CNC(=O)c3ccc4c(c3)NC(=O)c3ccccc3S4(=O)=O)s2)cc1 [11104-A, tert-butyl (R)-2-((4-(5-((5,5-dioxido-11-oxo-10, 11-dihydrodibenzo [b, f] [1, 4]thiazepine-8-carboxamido)methyl)thiazol-2-yl)phenoxy)methyl) pyrrolidine-1-carboxylate] | 74% | 0.9% |
| O=C(O)CSc1ncc(CNC(=O)c2ccc3c(c2)NC(=O)c2ccccc2S3(=O)=O)s1 [compound 1589, 2-((5-((5,5-dioxido-11-oxo-10, 11-dihydrodibenzo [b, f] [1, 4]thiazepine-8-carboxamido)methyl)thiazol-2-yl)thio) acetic acid] | 98% | 80% |
| O=C(O)c1ccc(-c2ncc(CNC(=O)c3ccc4c(c3)NC(=O)c3ccccc3S4)s2)cc1 [compound 1599, 4-(5-((11-oxo-10, 11-dihydrodibenzo [b, f] [1, 4]thiazepine-8-carboxamido)methyl)thiazol-2-yl) benzoic acid] | 61% | 5.9% |
| N#Cc1ccc(-c2ncc(CNC(=O)c3ccc4c(c3)NC(=O)c3ccccc3S4(=O)=O)s2)cc1 [1654-A, N-((2-(4-cyanophenyl)thiazol-5-yl)methyl)-11-oxo-10, 11-dihydrodibenzo [b, f] [1, 4] thiazepine-8-carboxamide 5,5-dioxide] | 68% | 2.6% |
| Cc1c(C(=O)NCc2cnc(C(F)(F)F)s2)ccc2c1NC(=O)c1ccccc1S2 [compound 1766] | 98% | 1.3% |
| O=C(NCc1cnc(-c2ccc(O[C@H]3CCNC3)cc2)s1)c1ccc2c(c1)NC(=O)c1ccccc1S2(=O)=O.O=C(O)C(F)(F)F [compound 11028, (S)-11-oxo-N-((2-(4-(pyrrolidin-3-yloxy)phenyl)thiazol-5-yl)methyl)-10, 11-dihydrodibenzo [b, f] [1, 4] thiazepine-8-carboxamide 5,5-dioxide TFA salt] | 92% | 5.2% |
| O=C(NCc1cnc(-c2ccc(O)c(Cl)c2)s1)c1ccc2c(c1)NC(=O)c1ccccc1S2(=O)=O [compound 1667] | 93% | 0.5% |
| Cc1c(C(=O)NCc2cnc(-c3ccc(OCCCN(C)C)cc3)s2)ccc2c1NC(=O)c1ccccc1S2(=O)=O [C38-01] | 99% | 1.3% |
| CNCCCOc1ccc(-c2ncc(CNC(=O)c3ccc4c(c3)NC(=O)c3ccccc3S4(=O)=O)s2)cc1 [compound 1989, N-((2-(4-(3-(methylamino)propoxy)phenyl)thiazol-5-yl)methyl)-11-oxo-10, 11-dihydrodibenzo [b, f] [1, 4] thiazepine-8-carboxamide 5,5-dioxide] | 90% | 2.5% |
| Cl.O=C(NCc1cnc(-c2ccc(O[C@@H]3CCNC3)cc2)s1)c1ccc2c(c1)NC(=O)c1ccccc1S2(=O)=O [compound 11103, (R)-11-oxo-N-((2-(4-(pyrrolidin-3-yloxy)phenyl)thiazol-5-yl)methyl)-10, 11-dihydrodibenzo [b, f] [1, 4] thiazepine-8-carboxamide 5,5-dioxide hydrochloride] | 102% | 2.5% |
| O=C(NCc1cnc(-c2ccc3cnccc3c2)s1)c1ccc2c(c1)NC(=O)c1ccccc1S2(=O)=O [compound 1820] | 105% | 3.2% |
| O=C(NCc1cnc(N2CCC(O)CC2)s1)c1ccc2c(c1)NC(=O)c1ccccc1S2(=O)=O [compound 1859] | 89% | 2.7% |
| CN(C)c1ncc(-c2ncc(CNC(=O)c3ccc4c(c3)NC(=O)c3ccccc3O4)s2)cn1 [compound 1711] | 96% | 6.5% |

| Compound | AD38 Viability Normalized Result (cmpd/DMSO %) at 10 μM (AD38 cells) | activity at 10 µM [1] |
| --- | --- | --- |
| O=C(NCc1cnc(-c2ccc(OCCCN3CCCCC3)cc2)s1)c1ccc2c(c1)NC(=O)c1ccccc1S2(=O)=O [compound 1992] | 89% | 5% |
| O=C(NCc1cnc(-c2ccccc2CO)s1)c1ccc2c(c1)NC(=O)c1ccccc1S2(=O)=O [compound 1838] | 113% | 1.4% |
| CC(C)c1ncc(CNC(=O)c2ccc3c(c2)NC(=O)c2ccccc2O3)s1 [compound 1559] | 87% | 0.7% |
| COC(=O)[C@@H]1CCCN1CCCOc1ccc(-c2ncc(CNC(=O)c3ccc4c(c3)NC(=O)c3ccccc3S4(=O)=O)s2)cc1 [11106-A] | 90% | 3.6% |
| CN(C)CCCOc1ccc(-c2ncc(CNC(=O)c3ccc4c(c3)NC(=O)c3ccccc3O4)s2)cc1 [compound 1698] | 91% | 2.7% |
| Cc1c(C(=O)NCc2cnc(-c3ccc(C#N)cc3)s2)ccc2c1NC(=O)c1ccccc1O2 [compound 1942] | 106% | 3% |
| O=C(NCc1cnc(-c2ccncc2)s1)c1ccc2c(c1)NC(=O)c1ccccc1S2(=O)=O [compound 1625] | 96% | 51.9% |
| Cc1c(C(=O)NCc2cnc(-n3cc(F)cn3)s2)ccc2c1NC(=O)c1ccccc1S2(=O)=O [compound 11148] | 98% | 0.3% |
| O=C(NCc1cnc(-c2ccccc2)s1)c1ccc2c(=O)c3ccccc3c(=O)[nH]c2c1 [compound 1594] | 105% | 0.9% |
| COc1ccc(-c2ncc(CNC(=O)c3ccc4c(c3)NC(=O)c3ccccc3O4)s2)cc1 [compound 1619] | 95% | 1.3% |
| NC(=O)c1ccc(-c2ncc(CNC(=O)c3ccc4c(c3)NC(=O)c3ccccc3S4(=O)=O)s2)c(F)c1 [compound 1970, N-((2-(4-carbamoyl-2-fluorophenyl)thiazol-5-yl)methyl)-11-oxo-10, 11-dihydrodibenzo [b, f] [1, 4] thiazepine-8-carboxamide 5,5-dioxide] | 121% | 1.5% |
| C=CCN1c2ccc(C(=O)NCc3cnc(C(F)(F)F)s3)cc2NC(=O)c2ccccc21 [compound 1920] | 85% | 48.8% |
| O=C(NCc1cnc(-c2ccc(O)cc2)s1)c1ccc2c(c1)NC(=O)c1cccc(F)c1S2 [compound 1753] | 97% | 2.4% |
| O=C(NCc1cnc(-c2ccc3[nH]ncc3c2)s1)c1ccc2c(c1)NC(=O)c1ccccc1S2(=O)=O [compound 1805] | 97% | 0.6% |
| O=C(NCc1cnc(-c2cnc(O)nc2)s1)c1ccc2c(c1)NC(=O)c1ccccc1O2 [compound 1709, N-((2-(2-hydroxypyrimidin-5-yl)thiazol-5-yl)methyl)-11-oxo-10, 11-dihydrodibenzo [b, f] [1, 4] oxazepine-8-carboxamide] | 94% | 51.1% |
| O=C(NCc1cnc(-c2cccnc2)s1)c1ccc2c(c1)NC(=O)c1ccccc1S2(=O)=O [compound 1624] | 98% | 0.8% |
